Assays:
[1] = test system: HBV; assay: HBV-DNA Antiviral Assay Using HepG2.2.15 Cells (extracellular HBV DNA by qPCR); type: cell-based; settings: Hepatitis B virus
Description: The following assay procedure describes the HBV antiviral assay. This assay uses HepG2.2.15 cells, which have been transfected with HBV genome, and extracellular HBV DNA quantification as endpoint. Cell viability is assessed in parallel by measuring the intracellular ATP content using the CellTiter-Glo© reagent from Promega.
On day 0, HepG2.2.15 cells were seeded in 96-well plates at a density of 6.0×10^4 cells/well (0.1 mL/well). The cells were incubated at 37° C. and 5% CO2.
On day 1, the test articles were diluted and added to cell culture wells (8 concentrations, 4-fold dilution, in duplicate). GLS4, Tenofovir and Sorafenib were used as reference compounds. 100 μL of culture medium containing the compounds was added to the plate, and the final total volume per well was 200 μL. The final concentration of DMSO in the culture medium was 0.5%. The plate map of compound treatment is shown below. The cells were cultured at 37° C. and 5% CO2 for 3 days.
On day 4, the plates were refreshed with culture media with compounds.
On day 7, cell viability was assessed using the CellTiter-Glo, and the cell culture supernatants were collected for determination of HBV DNA by qPCR.
Extracellular DNA was isolated with QIAamp 96 DNA Blood Kit per the manufacturer's manual. HBV DNA was then quantified by qPCR with HBV specific primers and probes as specified in Table 1 using the FastStart Universal MasterMix from Roche on an ABI-7900HT. The PCR cycle program consisted of 95° C. for 10 min, followed by 40 cycles at 95° C. for 15 sec and 60° C. for 1 min.
A DNA standard was prepared by dilution of the pAAV2 HBV1.3 plasmid with concentrations ranging from 10 to 1×10^7 copies/μL and used to generate a standard curve by plotting Ct value vs. the concentration of the HBV plasmid DNA standard. The quantity of HBV DNA in each sample was determined by interpolating from the standard curve.
Cell viability was calculated as follows: % Cell viability=(luminescence value of test sample−average luminescence value of blank)/(average luminescence value of 0.5% DMSO control−average luminescence of blank)×100%. HBV DNA inhibition was calculated as follows: 100-(HBV DNA copy number of test sample−HBV DNA copy number of ETV)/HBV DNA copy number of 0.5% DMSO control−HBV DNA copy number of ETV)×100%. The CC50, EC50 and EC90 values were determined by dose-response curves fitted by GraphPad Prism using “log (agonist) vs. response—Variable slope”.

[2] = test system: HBV; assay: HBV-DNA Antiviral Assay Using HepG2.117 Cells (intracellular HBV DNA by qPCR); type: cell-based, hepatitis B virus (genotype D); settings: Hepatitis B virus, HepG2.117
How it was run: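 HepG2.117 cells (genotype D HBV, Tet-off) were induced by doxycycline withdrawal and treated for 3 days with 9 concentrations in 4-fold dilution, 2% DMSO final. Intracellular HBV DNA was measured by qPCR against a standard curve, with ATPlite viability read in parallel. EC50, EC90 and CC50 came from fits against the DMSO control.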

[3] = 168 h, HBV DNA inhibition, HepG2.2.15 cells, extracellular HBV DNA by qPCR on day 7, read-out: EC50

Compound	EC50 [1, 3]	EC50 [2]	other results
C[C@@H]1Cn2c(c(C(=O)N[C@H](C)c3ccccc3)n(-c3ccc(-n4cccn4)cc3)c2=O)CN1C(=O)c1ccc(Br)c(Cl)c1 (mixture of isomers) [Example 466, (6RS)-7-(4-bromo-3-chloro-benzoyl)-6-methyl-3-oxo-N-[(1R)-1-phenylethyl]-2-(4-pyrazol-1-ylphenyl)-6,8-dihydro-5H-imidazo[1,5-a]pyrazine-1-carboxamide]	500 to 5000 nM		
C[C@@H](NC(=O)c1c2n(c(=O)n1-c1ccc(-n3cccn3)cc1)C[C@H](C)N(C(=O)c1ccc(Br)c(Cl)c1)C2)c1ccccc1 (mixture of isomers) [Example 467, (6SR)-7-(4-bromo-3-chloro-benzoyl)-6-methyl-3-oxo-N-[(1R)-1-phenylethyl]-2-(4-pyrazol-1-ylphenyl)-6,8-dihydro-5H-imidazo[1,5-a]pyrazine-1-carboxamide]	100 to 500 nM		
CC1Cn2c(c(C(=O)NCc3ccccc3-c3ncccn3)n(-c3ccc(-n4cccn4)cc3)c2=O)CN1C(=O)c1ccc(Br)c(Cl)c1 (racemic) [Example 468, rac-(6R)-7-(4-bromo-3-chloro-benzoyl)-6-methyl-3-oxo-2-(4-pyrazol-1-ylphenyl)-N-[(2-pyrimidin-2-ylphenyl)methyl]-6,8-dihydro-5H-imidazo[1,5-a]pyrazine-1-carboxamide]	100 to 500 nM		
C[C@H]1Cn2c(c(C(=O)NCc3ccccc3-c3ncccn3)n(-c3ccc(-n4cccn4)cc3)c2=O)CN1C(=O)c1ccc(Br)c(Cl)c1 (racemic) [Example 469, rac-(6S)-7-(4-bromo-3-chloro-benzoyl)-6-methyl-3-oxo-2-(4-pyrazol-1-ylphenyl)-N-[(2-pyrimidin-2-ylphenyl)methyl]-6,8-dihydro-5H-imidazo[1,5-a]pyrazine-1-carboxamide]	< 100 nM		
C[C@@H]1Cn2c(c(C(=O)NCc3ccccc3-c3ncccn3)n(-c3ccc(-n4cccn4)cc3)c2=O)CN1C(=O)c1ccc(Br)c(C#N)c1 (stereo in doubt) [Example 470, rac-(6R)-7-(4-bromo-3-cyano-benzoyl)-6-methyl-3-oxo-2-(4-pyrazol-1-ylphenyl)-N-[(2-pyrimidinn-2-ylphenyl)methyl]-6,8-dihydro-5H-imidazo[1,5-a]yrazine-1-carboxamide]	100 to 500 nM		
C[C@H]1Cn2c(c(C(=O)NCc3ccccc3-c3ncccn3)n(-c3ccc(-n4cccn4)cc3)c2=O)CN1C(=O)c1ccc(Br)c(C#N)c1 (stereo in doubt) [Example 471, rac-(6S)-7-(4-bromo-3-cyano-benzoyl)-6-methyl-3-oxo-2-(4-pyrazol-1-ylphenyl)-N-[(2-pyrimidin-2-ylphenyl)methyl]-6,8-dihydro-5H-imidazo[1,5-a]pyrazine-1-carboxamide]	500 to 5000 nM		
C[C@@H](NC(=O)c1c2n(c(=O)n1-c1ccc(OC3CC3)cc1)CCN(C(=O)c1ccc(Br)c(Cl)c1)C2)c1ccccc1-n1cncn1 (stereo in doubt) [Example 472, 7-(4-bromo-3-chloro-benozyl)-2-[4-(cyclopropoxy)phenyl]-3-oxo-N-[rac-(1R)-1-[2-(1,2,4-triazol-1-yl)phenyl]ethyl]-6,8-dihydro-5H-imidazo[1,5-a]pyrazine-1-carboxamide]	500 to 5000 nM		
C[C@H](NC(=O)c1c2n(c(=O)n1-c1ccc(OC3CC3)cc1)CCN(C(=O)c1ccc(Br)c(Cl)c1)C2)c1ccccc1-n1cncn1 (stereo in doubt) [Example 473, 7-(4-bromo-3-chloro-benzoyl)-2-[4-(cyclopropoxy)phenyl]-3-oxo-N-[rac-(1S)-1-[2-(1,2,4-triazol-1-yl)phenyl]ethyl]-6,8-dihydro-5H-imidazo[1,5-a]pyrazine-1-carboxamide]	> 5000 nM		
O=C1NCCCn2c1c1n(c2=O)CCN(C(=O)Nc2ccc(F)c(Cl)c2)C1 [Example 1, N-(3-chloro-4-fluorophenyl)-6,12-dioxo-1,3,4,8,9,10,11,12-octahydro-2H,6H-pyrazino[1′,2′:3,4]imidazo[1,5-a][1,4]diazepine-2-carboxamide]	> 5000 nM		
CN1CCCn2c(c3n(c2=O)CCN(C(=O)Nc2ccc(F)c(Cl)c2)C3)C1=O [Example 2, N-(3-chloro-4-fluorophenyl)-11-methyl-6,12-dioxo-1,3,4,8,9,10,11,12-octahydro-2H,6H-pyrazino[1′,2′:3,4]imidazo[1,5-a][1,4]diazepine-2-carboxamide]	500 to 5000 nM		
O=C(Nc1ccc(F)c(Cl)c1)N1CCn2c(c3n(c2=O)CCCN(Cc2ccccc2)C3=O)C1 [Example 3, 11-benzyl-N-(3-chloro-4-fluorophenyl)-6,12-dioxo-1,3,4,8,9,10,11,12-octahydro-2H,6H-pyrazino[1′,2′:3,4]imidazo[1,5-a][1,4]diazepine-2-carboxamide]			EC50 ([1]; HepG2.2.15, 168 h): 100 to 500 nM
COc1ccc(CN2CCCn3c(c4n(c3=O)CCN(C(=O)Nc3ccc(F)c(Cl)c3)C4)C2=O)cc1 [Example 4, N-(3-chloro-4-fluorophenyl)-11-(4-methoxybenzyl)-6,12-dioxo-1,3,4,8,9,10,11,12-octahydro-2H,6H-pyrazino[1′,2′:3,4]imidazo[1,5-a][1,4]diazepine-2-carboxamide]	< 100 nM		
O=C1NCCCn2c1c1n(c2=O)CCN(C(=O)c2ccc(Br)cc2)C1 [Example 5, 4-(4-bromobenzoyl)-4,7,9,13-tetraazatricyclo[7.5.0.0^[2,7]]tetradec-1-ene-8,14-dione]	> 5000 nM		
Cc1ccnn1-c1ccc(-n2c(C(=O)NCc3ccccc3)c3n(c2=O)CCN(C(=O)c2ccc(Br)c(Cl)c2)C3)cc1 [Example 456, N-benzyl-7-(4-bromo-3-chloro-benzoyl)-2-[4-(5-methylpyrazol-1-yl)phenyl]-3-oxo-6,8-dihydro-5H-imidazo[1,5-a]pyrazine-1-carboxamide]		500 to 5000 nM	
O=C(NCc1ccccc1-n1cccn1)c1c2n(c(=O)n1-c1ccc(OC3CC3)cc1)CCN(C(=O)c1ccc(Br)c(Cl)c1)C2 [Example 457, 7-(4-bromo-3-chloro-benzoyl)-2-[4-(cyclopropoxy)phenyl]-3-oxo-N-[(2-pyrazol-1-ylphenyl)methyl]-6,8-dihydro-5H-imidazo[1,5-a]pyrazine-1-carboxamide]		< 100 nM	
O=C(NCc1c(F)ccc2nccnc12)c1c2n(c(=O)n1-c1ccc(-n3cccn3)cc1)CCN(C(=O)c1ccc(Br)c(Cl)c1)C2 [Example 458, 7-(4-bromo-3-chloro-benzoyl)-N-[(6-fluoroquinoxalin-5-yl)methyl]-3-oxo-2-(4-pyrazol-1-ylphenyl)-6,8-dihydro-5H-imidazo[1,5-a]pyrazine-1-carboxamide]		100 to 500 nM	
COc1ccc(CNC(=O)c2c3n(c(=O)n2-c2ccc(-n4cccn4)cc2)CCN(C(=O)c2ccc(Br)c(Cl)c2)C3)c(F)c1 [Example 459, 7-(4-bromo-3-chloro-benzoyl)-N-[(2-fluoro-4-methoxy-phenyl)methyl]-3-oxo-2-(4-pyrazol-1-ylphenyl)-6,8-dihydro-5H-imidazo[1,5-a]pyrazine-1-carboxamide]		100 to 500 nM	
COc1ccc(CNC(=O)c2c3n(c(=O)n2-c2ccc(OC4CC4)cc2)CCN(C(=O)c2ccc(Br)c(Cl)c2)C3)c(F)c1 [Example 460, 7-(4-bromo-3-chloro-benzoyl)-2-[4-(cyclopropoxy)phenyl]-N-[(2-fluoro-4-methoxy-phenyl)methyl]-3-oxo-6,8-dihydro-5H-imidazo[1,5-a]pyrazine-1-carboxamide]		100 to 500 nM	
O=C(NCc1c(F)ccc2nccnc12)c1c2n(c(=O)n1-c1ccc(OC3CC3)cc1)CCN(C(=O)c1ccc(Br)c(Cl)c1)C2 [Example 461, 7-(4-bromo-3-chloro-benozyl)-2-[4-(cyclopropoxy)phenyl]-N-[(6-fluoroquinoxalin-5-yl)methyl]-3-oxo-6,8-dihydro-5H-imidazo[1,5-a]pyrazine-1-carboxamide]		< 100 nM	
Cc1c(C(=O)N2CCn3c(c(C(=O)NCc4ccccc4)n(-c4ccc(OC5CC5)cc4)c3=O)C2)ccc(Br)c1Cl [Example 462, N-benzyl-7-(4-bromo-3-chloro-2-methyl-benzoyl)-2-[4-(cyclopropoxy)phenyl]-3-oxo-6,8-dihydro-5H-imidazo[1,5-a]pyrazine-1-carboxamide]		500 to 5000 nM	
